Measured values reported in patent US6337417B1, “N-phenyltetrahydrophthalamic acid derivatives, methods of producing same, and herbicides containing same as effective components” (Central Glass Co., Ltd., priority 1994, dated 2002).

Key:
Type in all cases: in vivo
Set-up in all cases: key: 5: completely killed; 4: seriously injured; 3: considerably injured; 2: somewhat injured; 1: slightly injured; 0: not injured (normally grown)
[1] = test system: paddy rice; assay: Experiment 4 flooded soil treatment: injury to paddy rice; conditions: 4 weeks after treatment
Excerpt: (§1) Paddy soil (clay loam) was put into a pot so as to have a surface area of 1/15500 ares. Uniformly mixed seeds of several kinds of weeds, viz., nobie (barnyardgrass, Echinochloa spp.), broad-leaved weeds, hotarui (bulrush, Scirpus juncoides) and tamagayatsuri (small-flowered umbrellaplant, Cyperus difformis), were sown in the surface layer of the soil in each pot, and then paddy rice seedlings at the two- or three-leaved stage were transplanted into each pot to a depth of 2 cm, and water was fed into each pot so as to provide a 3 cm deep water layer on the soil surface. After 3 days, in other words at the initial stage of germination of nobie (barnyardgrass, Echinochloa spp.), a predetermined amount of a selected compound obtained in a manner analogous to Example 11 in the form of diluted aqueous solution was dropped into the water layer in each pot. After that, the pots were kept in a glass chamber to allow the paddy rice and the weeds to grow, and after the lapse of 4 weeks from the treatment with the selected compounds, the herbicidal effects and the degree of injury to the paddy rice were evaluated. The evaluation of the herbicidal effects was similarly conducted as to that of Experiment 1.

[2] = test system: nobie (barnyardgrass, Echinochloa spp.); assay: Experiment 4 flooded soil treatment: nobie; conditions: 4 weeks after treatment
Excerpt: as §1

[3] = test system: broad-leaved weeds; assay: Experiment 4 flooded soil treatment: broad-leaved weeds; conditions: 4 weeks after treatment
Excerpt: as §1

[4] = test system: hotarui (bulrush, Scirpus juncoides); assay: Experiment 4 flooded soil treatment: hotarui; conditions: 4 weeks after treatment
Excerpt: as §1

[5] = test system: tamagayatsuri (small-flowered umbrellaplant, Cyperus difformis); assay: Experiment 4 flooded soil treatment: tamagayatsuri; conditions: 4 weeks after treatment
Excerpt: as §1

[6] = test system: rice; assay: Experiment 5 foliage treatment: rice; conditions: foliage spray of wettable powder suspension, evaluated 4 weeks after treatment
Description: (§2) Upon seedling stage (two- or three-leaved stage) of rice, cockspur (Panicum crus-galli), garden radish, aobiyu (slender amaranth, Amaranthus viridis) and mehishiba (henry crabgrass, Digitaria cliaris) which were grown on a cultivated soil put in pots of 1/15500 ares, a selected compound obtained in a manner analogous to Example 11, in suspended wettable powder, was sprayed to each plant. After that, the pots were kept in a glass chamber to allow each plant to grow, and after the lapse of 4 weeks from the treatment with the selected compounds the herbicidal effects were evaluated. The evaluation of the herbicidal effects was similarly conducted as that of Experiment 1.

[7] = test system: cockspur (Panicum crus-galli); assay: Experiment 5 foliage treatment: cockspur; conditions: foliage spray of wettable powder suspension, evaluated 4 weeks after treatment
Description: as §2

[8] = test system: garden radish; assay: Experiment 5 foliage treatment: garden radish; conditions: foliage spray of wettable powder suspension, evaluated 4 weeks after treatment
Description: as §2

[9] = test system: aobiyu (slender amaranth, Amaranthus viridis); assay: Experiment 5 foliage treatment: aobiyu; conditions: foliage spray of wettable powder suspension, evaluated 4 weeks after treatment
Description: as §2

[10] = test system: mehishiba (henry crabgrass, Digitaria cliaris); assay: Experiment 5 foliage treatment: mehishiba; conditions: foliage spray of wettable powder suspension, evaluated 4 weeks after treatment
Description: as §2

[11] = test system: ichibi (velvetleaf, Abutilon theophrasti); assay: Experiment 6 foliage treatment: ichibi; conditions: foliage spray of wettable powder suspension, evaluated 4 weeks after treatment
Description: as §2, with “ichibi (velvetleaf, Abutilon theophrasti), onamomi (heartleaf cocklebur, Xanthium strumarium) (4 L stage), noasagao (blue morningglory, Ipomoea indica)” for “rice, cockspur (Panicum crus-galli), garden radish, aobiyu (slender amaranth, Amaranthus viridis)”, “ooinutade (pale smartweed, Persicaria lapathifolia)” for “mehishiba (henry crabgrass, Digitaria cliaris)”, “1/8850” for “1/15500”

[12] = test system: onamomi (heartleaf cocklebur, Xanthium strumarium); assay: Experiment 6 foliage treatment: onamomi; conditions: foliage spray of wettable powder suspension, evaluated 4 weeks after treatment
Description: as §2, with “ichibi (velvetleaf, Abutilon theophrasti), onamomi (heartleaf cocklebur, Xanthium strumarium) (4 L stage), noasagao (blue morningglory, Ipomoea indica)” for “rice, cockspur (Panicum crus-galli), garden radish, aobiyu (slender amaranth, Amaranthus viridis)”, “ooinutade (pale smartweed, Persicaria lapathifolia)” for “mehishiba (henry crabgrass, Digitaria cliaris)”, “1/8850” for “1/15500”

[13] = test system: noasagao (blue morningglory, Ipomoea indica); assay: Experiment 6 foliage treatment: noasagao; conditions: foliage spray of wettable powder suspension, evaluated 4 weeks after treatment
Description: as §2, with “ichibi (velvetleaf, Abutilon theophrasti), onamomi (heartleaf cocklebur, Xanthium strumarium) (4 L stage), noasagao (blue morningglory, Ipomoea indica)” for “rice, cockspur (Panicum crus-galli), garden radish, aobiyu (slender amaranth, Amaranthus viridis)”, “ooinutade (pale smartweed, Persicaria lapathifolia)” for “mehishiba (henry crabgrass, Digitaria cliaris)”, “1/8850” for “1/15500”

[14] = test system: ooinutade (pale smartweed, Persicaria lapathifolia); assay: Experiment 6 foliage treatment: ooinutade; conditions: foliage spray of wettable powder suspension, evaluated 4 weeks after treatment
Description: as §2, with “ichibi (velvetleaf, Abutilon theophrasti), onamomi (heartleaf cocklebur, Xanthium strumarium) (4 L stage), noasagao (blue morningglory, Ipomoea indica)” for “rice, cockspur (Panicum crus-galli), garden radish, aobiyu (slender amaranth, Amaranthus viridis)”, “ooinutade (pale smartweed, Persicaria lapathifolia)” for “mehishiba (henry crabgrass, Digitaria cliaris)”, “1/8850” for “1/15500”

Compound	Injury of Paddy ([1]; 3.13 g/10a)	Injury of Paddy ([1]; 6.25 g/10a)	Herbicidal Effect nobie ([2]; 3.13 g/10a)	Herbicidal Effect nobie ([2]; 6.25 g/10a)	Herbicidal Effect broad-leaved weed ([3]; 3.13 g/10a)	Herbicidal Effect broad-leaved weed ([3]; 6.25 g/10a)	Herbicidal Effect hotarui ([4]; 3.13 g/10a)	Herbicidal Effect hotarui ([4]; 6.25 g/10a)	Herbicidal Effect tamagayatsuri ([5]; 3.13 g/10a)	Herbicidal Effect tamagayatsuri ([5]; 6.25 g/10a)	Herbicidal Effect rice ([6]; 40 g/10a)	Herbicidal Effect rice ([6]; 80 g/10a)	Herbicidal Effect cockspur ([7]; 40 g/10a)	Herbicidal Effect cockspur ([7]; 80 g/10a)	Herbicidal Effect garden radish ([8]; 40 g/10a)	Herbicidal Effect garden radish ([8]; 80 g/10a)	Herbicidal Effect aobiyu ([9]; 40 g/10a)	Herbicidal Effect aobiyu ([9]; 80 g/10a)	Herbicidal Effect mehishiba ([10]; 40 g/10a)	Herbicidal Effect mehishiba ([10]; 80 g/10a)	other results
C#CC(C)Oc1cc(N(C(=O)C2=C(C(=O)OCCOCC)CCCC2)C(=O)c2cccnc2)c(F)cc1Cl (stereo not shown) [compound 60]	0.5	0.5	5	5	5	5	4.5	4.5	5	5	2	4	1	1	5	5	5	5	4	5	Herbicidal Effect ichibi ([11]; 4 g/10a): 5; Herbicidal Effect ichibi ([11]; 8 g/10a): 5; Herbicidal Effect onamomi ([12]; 4 g/10a): 5; Herbicidal Effect onamomi ([12]; 8 g/10a): 5; Herbicidal Effect noasagao ([13]; 4 g/10a): 5; Herbicidal Effect noasagao ([13]; 8 g/10a): 5; Herbicidal Effect ooinutade ([14]; 4 g/10a): 5; Herbicidal Effect ooinutade ([14]; 8 g/10a): 5
COC(=O)C1=C(C(=O)N(C(=O)c2cccnc2)c2cc(C(=O)OC)c(Cl)cc2F)CCCC1 [compound 64]	0	0.5	5	5	5	5	4	4	4	4	1	1	1	1	5	5	5	5	1	2	Herbicidal Effect ichibi ([11]; 4 g/10a): 5; Herbicidal Effect ichibi ([11]; 8 g/10a): 5; Herbicidal Effect onamomi ([12]; 4 g/10a): 4; Herbicidal Effect onamomi ([12]; 8 g/10a): 5; Herbicidal Effect noasagao ([13]; 4 g/10a): 4; Herbicidal Effect noasagao ([13]; 8 g/10a): 5; Herbicidal Effect ooinutade ([14]; 4 g/10a): 5; Herbicidal Effect ooinutade ([14]; 8 g/10a): 5
C#CC(C)Oc1cc(N(C(=O)C2=C(C(=O)OC)CCCC2)C(=O)c2cncc(C(=O)OC)c2)c(F)cc1Cl (stereo not shown) [compound 67]	0.5	0.5	5	5	5	5	4	5	5	5	1	1	1	1	5	5	5	5	1	1	Herbicidal Effect ichibi ([11]; 4 g/10a): 5; Herbicidal Effect ichibi ([11]; 8 g/10a): 5; Herbicidal Effect onamomi ([12]; 4 g/10a): 4; Herbicidal Effect onamomi ([12]; 8 g/10a): 5; Herbicidal Effect noasagao ([13]; 4 g/10a): 5; Herbicidal Effect noasagao ([13]; 8 g/10a): 5; Herbicidal Effect ooinutade ([14]; 4 g/10a): 5; Herbicidal Effect ooinutade ([14]; 8 g/10a): 5
N-[4-chloro-2-fluoro-5-(1-methylpropargyloxy)phenyl]-N-nicotinyl-3,4,5,6-tetrahydrophthalamic acid methyl ester [compound 57]	0	0.5	5	5	5	5	4.5	4.5	5	5	1	1	1	3	5	5	5	5	4	4	Herbicidal Effect ichibi ([11]; 4 g/10a): 5; Herbicidal Effect ichibi ([11]; 8 g/10a): 5; Herbicidal Effect onamomi ([12]; 4 g/10a): 4; Herbicidal Effect onamomi ([12]; 8 g/10a): 4; Herbicidal Effect noasagao ([13]; 4 g/10a): 4; Herbicidal Effect noasagao ([13]; 8 g/10a): 4; Herbicidal Effect ooinutade ([14]; 4 g/10a): 5; Herbicidal Effect ooinutade ([14]; 8 g/10a): 5
